From article PMC6162346, “The MALDI-TOF E2/E3 Ligase Assay as Universal Tool for Drug Discovery in the Ubiquitin Pathway” (Cell Chemical Biology, 2018)
Where “and” joins values, the source holds several entries; their conditions need not be identical. Identical values can stand only once. Entries after “also recorded” stand apart in the source; their conditions may differ. Like-named read-outs stand apart in the source and are kept apart here.

Assays:
[1] = target: T1, HOIP (Homo sapiens, UniProt Q96EP0); assay: MALDI-TOF E2/E3 ligase assay (mono-ubiquitin consumption), UBE1/UBE2L3/HOIP; assay type: biochemical; conditions: for remaining activity at 10 µM: read-out: Residual Activity (%), UBE1/UBE2L3/HOIP
T1 construct: HOIP (697-1072) DU22629; GST (cleaved yes); host or cells: E. coli BL21
T1 sequence (Q96EP0 697-1072): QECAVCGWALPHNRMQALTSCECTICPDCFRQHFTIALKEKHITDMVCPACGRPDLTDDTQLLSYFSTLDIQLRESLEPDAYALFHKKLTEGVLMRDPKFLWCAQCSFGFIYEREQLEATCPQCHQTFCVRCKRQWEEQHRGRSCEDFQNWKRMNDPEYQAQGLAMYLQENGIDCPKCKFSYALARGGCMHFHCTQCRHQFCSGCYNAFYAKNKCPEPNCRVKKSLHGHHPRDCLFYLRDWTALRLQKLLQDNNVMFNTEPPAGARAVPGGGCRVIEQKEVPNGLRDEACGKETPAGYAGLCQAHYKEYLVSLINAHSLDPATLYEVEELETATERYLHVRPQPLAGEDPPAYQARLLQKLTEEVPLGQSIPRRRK

[2] = target: MDM2 (Homo sapiens, UniProt Q00987); assay: MALDI-TOF E2/E3 ligase assay (mono-ubiquitin consumption), UBE1/UBE2D1/MDM2; assay type: biochemical; conditions: for Inhibition effect on MDM2 with β-mercaptoethanol (BME) present: initial presence of BME in the MDM2 preparation; for remaining activity at 10 µM: read-out: Residual Activity (%), UBE1/UBE2D1/MDM2
Chain of MDM2 (Q00987 whole entry): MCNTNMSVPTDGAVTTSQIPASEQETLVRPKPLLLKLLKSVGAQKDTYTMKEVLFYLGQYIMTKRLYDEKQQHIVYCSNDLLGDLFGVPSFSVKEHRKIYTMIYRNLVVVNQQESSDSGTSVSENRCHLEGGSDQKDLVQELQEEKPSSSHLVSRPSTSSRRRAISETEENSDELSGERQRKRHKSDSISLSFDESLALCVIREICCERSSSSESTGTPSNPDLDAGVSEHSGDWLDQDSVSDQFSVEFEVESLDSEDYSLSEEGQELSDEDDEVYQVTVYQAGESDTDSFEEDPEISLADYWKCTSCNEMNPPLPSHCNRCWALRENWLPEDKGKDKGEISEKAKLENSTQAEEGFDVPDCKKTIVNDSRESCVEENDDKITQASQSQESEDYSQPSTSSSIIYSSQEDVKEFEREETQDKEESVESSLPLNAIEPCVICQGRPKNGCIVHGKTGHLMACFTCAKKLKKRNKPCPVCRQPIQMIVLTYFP

[3] = target: T2, ITCH (Homo sapiens, UniProt Q96J02); assay: MALDI-TOF E2/E3 ligase assay (mono-ubiquitin consumption), UBE1/UBE2D1/ITCH; assay type: biochemical; conditions: for remaining activity at 10 µM: read-out: Residual Activity (%), UBE1/UBE2D1/ITCH
T2 construct: ITCH Q96J02 - GST full length; host or cells: E. coli BL21
T2 sequence (Q96J02 whole entry): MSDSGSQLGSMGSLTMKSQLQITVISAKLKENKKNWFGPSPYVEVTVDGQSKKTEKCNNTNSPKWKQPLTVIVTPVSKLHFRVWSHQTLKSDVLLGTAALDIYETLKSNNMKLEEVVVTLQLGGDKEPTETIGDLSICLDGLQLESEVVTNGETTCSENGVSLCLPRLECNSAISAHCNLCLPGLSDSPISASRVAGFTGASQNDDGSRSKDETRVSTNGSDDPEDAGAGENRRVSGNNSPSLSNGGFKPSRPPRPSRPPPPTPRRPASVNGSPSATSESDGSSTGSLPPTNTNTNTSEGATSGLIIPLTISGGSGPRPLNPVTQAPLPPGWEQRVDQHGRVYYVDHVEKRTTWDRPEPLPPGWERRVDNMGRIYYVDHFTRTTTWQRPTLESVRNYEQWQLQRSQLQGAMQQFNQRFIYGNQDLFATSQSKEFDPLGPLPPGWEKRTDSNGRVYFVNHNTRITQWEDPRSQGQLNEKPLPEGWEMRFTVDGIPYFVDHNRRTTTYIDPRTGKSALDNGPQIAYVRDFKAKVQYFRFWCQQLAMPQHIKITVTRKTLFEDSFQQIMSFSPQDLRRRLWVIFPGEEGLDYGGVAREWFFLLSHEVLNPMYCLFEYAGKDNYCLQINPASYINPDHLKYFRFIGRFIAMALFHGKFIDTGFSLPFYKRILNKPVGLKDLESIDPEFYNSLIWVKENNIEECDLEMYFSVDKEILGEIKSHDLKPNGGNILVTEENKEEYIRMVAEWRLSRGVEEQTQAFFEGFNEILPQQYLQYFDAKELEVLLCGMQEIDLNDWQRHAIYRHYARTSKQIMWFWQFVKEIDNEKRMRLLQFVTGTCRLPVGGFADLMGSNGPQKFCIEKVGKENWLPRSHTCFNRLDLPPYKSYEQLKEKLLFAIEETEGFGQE

[4] = target: T3, UBE2L3 (Homo sapiens, UniProt P68036); assay: MALDI-TOF MS of intact E2 protein incubated with inhibitor (covalent modification); assay type: binding; conditions: UBE2L3 3 µM, inhibitor 100 µM, 30 min, room temperature
T3 construct: UBE2L3 P68036 UbcH7 - full length; 6His (cleaved yes); host or cells: E. coli BL21 DE3 codon plus
T3 sequence (P68036 whole entry): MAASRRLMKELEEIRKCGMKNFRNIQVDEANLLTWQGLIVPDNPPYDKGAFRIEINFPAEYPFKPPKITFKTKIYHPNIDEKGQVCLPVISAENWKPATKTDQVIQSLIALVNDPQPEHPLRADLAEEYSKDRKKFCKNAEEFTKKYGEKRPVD

[5] = system: ITCH; set-up: method as in Rossi et al., 2014; conditions: irreversible block; ref Rossi et al., 2014; cited from earlier work
[6] = target: T1, HOIP; assay type: biochemical
[7] = UBE1/UBE2L3/HOIP, compounds pre-incubated 30 min, then ubiquitin 30 or 40 min, four-parameter fit, read-out: IC50 against HOIP
[8] = UBE1/UBE2D1/MDM2, compounds pre-incubated 30 min, then ubiquitin 30 or 40 min, four-parameter fit, read-out: IC50 against MDM2
[9] = UBE1/UBE2D1/ITCH, compounds pre-incubated 30 min, then ubiquitin 30 or 40 min, four-parameter fit, read-out: IC50 against ITCH
[10] = HTS single point, 10 μM compound

COc1ccc(CCN)cc1OC [2-(3,4-dimethoxyphenyl) ethanamine]
remaining activity at 10 µM [1]: 68.2%

Cc1ccc(S(=O)(=O)/C=C/C#N)cc1 [BAY117082]
Hill Slope Values for calculated IC50s, HOIP ([1]; Table S4): 2.48 | IC50 [1, 7]: 2.9 µM | Hill Slope Values for calculated IC50s, MDM2 ([2]; Table S4): 3.5 | IC50 [2, 8]: 2.4 µM | Inhibition effect on MDM2 with β-mercaptoethanol (BME) present [2]: suppressed | Hill Slope Values for calculated IC50s, ITCH ([3]; Table S4): 1.23 | IC50 [3, 9]: 25.9 µM | Covalent modification of E2 enzyme UBE2L3 (in words) [4]: covalently modified E2 enzymes | Mass shift of UBE2L3 after incubation with inhibitor [4]: 153 Da

CN(C)CCCN1c2ccccc2CCc2ccc(Cl)cc21 [Clomipramine]
Inhibition of HOIP at 10 μM (in words) ([1]; 10 μM): did not inhibit | Inhibition of MDM2 at 10 μM (in words) [2]: did not inhibit | Concentration achieving complete inhibition of ITCH ubiquitin transthiolation [5]: 0.8 mM | Inhibition of ITCH at 10 μM (in words) [3]: did not inhibit | IC50 ([3]; dose-response curve, final concentrations between 2mM and 7 µM, read-out: IC50 against ITCH): 503 µM and ~500 µM

CN1C(=O)[C@]23CC4=CC=C[C@H](O)[C@H]4N2C(=O)[C@@]1(CO)SS3 [Gliotoxin]
Hill Slope Values for calculated IC50s, HOIP [1]: 2.01 | IC50 [1]: 2.8 µM | Hill Slope Values for calculated IC50s, MDM2 [2]: 2.18 | IC50 [2]: 0.5 µM | Hill Slope Values for calculated IC50s, ITCH [3]: 5.12 | IC50 [3]: 30.5 µM

COc1ccc(C2=N[C@@H](c3ccc(Cl)cc3)[C@@H](c3ccc(Cl)cc3)N2C(=O)N2CCNC(=O)C2)c(OC(C)C)c1 [Nutlin3A, nutlin-3A]
Inhibitory activity toward HOIP in IC50 curves (in words) ([1]; 0–100 μM): did not show any inhibitory activity | IC50 against HOIP ([1]; UBE1/UBE2L3/HOIP, compounds pre-incubated 30 min, then ubiquitin 30 or 40 min, four-parameter fit): ambiguous | Inhibitory activity toward ITCH in IC50 curves (in words) ([3]; 0–100 μM): did not show any inhibitory activity | IC50 against ITCH ([3]; UBE1/UBE2D1/ITCH, compounds pre-incubated 30 min, then ubiquitin 30 or 40 min, four-parameter fit): ambiguous

N#CSc1cc(SC#N)c(N)nc1N [PR619]
Hill Slope Values for calculated IC50s, HOIP ([1]; Table S4): 7.8 | IC50 [1, 7]: 0.2 µM | Hill Slope Values for calculated IC50s, MDM2 ([2]; Table S4): 1.89 | IC50 [2, 8]: 0.6 µM | Hill Slope Values for calculated IC50s, ITCH ([3]; Table S4): 3.14 | IC50 [3, 9]: 0.4 µM | Covalent modification of E2 enzyme UBE2L3 (in words) [4]: extensively modified UBE2L3; also recorded: covalently modified E2 enzymes

CCOC(=O)c1ccc(N2NC(=O)/C(=C/c3ccc([N+](=O)[O-])o3)C2=O)cc1 [PYR41]
Hill Slope Values for calculated IC50s, HOIP ([1]; Table S4): 3.73 | IC50 [1, 7]: 5.7 µM | Hill Slope Values for calculated IC50s, MDM2 ([2]; Table S4): 2.23 | IC50 [2, 8]: 3.1 µM | Inhibition effect on MDM2 with β-mercaptoethanol (BME) present [2]: suppressed | Hill Slope Values for calculated IC50s, ITCH ([3]; Table S4): 1.22 | IC50 [3, 9]: 11.3 µM

Cc1[nH]cnc1CN1CCc2c(c3ccccc3n2C)C1=O [alosetron]
remaining activity at 10 µM [3, 10]: 58.2%

C[C@H]1[C@H](NC(=O)/C(=N\OC(C)(C)C(=O)O)c2csc(N)n2)C(=O)N1S(=O)(=O)O [aztreonam]
remaining activity at 10 µM [2, 10]: 56.7%

Cn1c(CCCC(=O)O)nc2cc(N(CCCl)CCCl)ccc21 [bendamustine]
IC50 ([1]; IC50 against HOIP, UBE1/UBE2L3/HOIP, compounds pre-incubated 30 min, then ubiquitin 30 or 40 min, four-parameter fit): 6.4 µM and 6.3 µM | Fold higher activity against HOIP than against ITCH ([1]; from IC50 values): 12 fold | Fold higher activity against HOIP than against MDM2 ([1]; from IC50 values): 18 fold | remaining activity at 10 µM [1]: 6.3% | Inhibition of HOIP when paired with UBE2D1 (in words) [6]: inhibits HOIP independently from the E2 in use; also recorded: retained its inhibition power | IC50 [2]: 114 µM | Inhibition of MDM2 at 10 μM (in words) [2]: did not significantly affect | IC50 [3]: 76.8 µM | Inhibition of ITCH at 10 μM (in words) [3]: did not significantly affect

CCCCN1CCCCC1C(=O)Nc1c(C)cccc1C (centres unmarked) [bupivacaine]
remaining activity at 10 µM [1, 10]: 66.2%

CCOc1nc2cccc(C(=O)OC(C)OC(=O)OC3CCCCC3)c2n1Cc1ccc(-c2ccccc2-c2nnn[nH]2)cc1 (centres unmarked) [candesartan cilexetil]
inhibition at 10 µM [2, 10]: > 50% | remaining activity at 10 µM [2, 10]: 48.6% | IC50 [2, 8]: 8.8 µM

N[C@@H](C(=O)N[C@@H]1C(=O)N2C(C(=O)O)=C(CSc3c[nH]nn3)CS[C@H]12)c1ccc(O)cc1 [cefatrizine]
remaining activity at 10 µM [1, 10]: 49%

O=c1c2ccccc2[se]n1-c1ccccc1 [ebselen]
remaining activity at 10 µM [1, 10]: 36.2%

C=C(CC)C(=O)c1ccc(OCC(=O)O)c(Cl)c1Cl [ethacrynic acid]
remaining activity at 10 µM [2, 10]: 53.9% | remaining activity at 10 µM [3, 10]: 29.5%

OC(Cn1cncn1)(Cn1cncn1)c1ccc(F)cc1F [fluconazole]
remaining activity at 10 µM [1, 10]: 46.4%

Oc1c(Cl)cc(Cl)c(Cl)c1Cc1c(O)c(Cl)cc(Cl)c1Cl [hexachlorophene]
remaining activity at 10 µM [2]: 52.4% | remaining activity at 10 µM [3]: 22.2%

O=C(NCCN1CCOCC1)c1ccc(Cl)cc1 [moclobemide]
remaining activity at 10 µM [1, 10]: 25.9%

Cc1ccnc2c1NC(=O)c1cccnc1N2C1CC1 [nevirapine]
remaining activity at 10 µM [1, 10]: 54.8%

NC(=O)c1cnccn1 [pyrazinamide]
remaining activity at 10 µM [1, 10]: 49.3%

Oc1ccc(/C=C/c2cc(O)cc(O)c2)cc1 [resveratrol]
remaining activity at 10 µM [1, 10]: 62.2%
